For 1 compound, EC50 results are on record in ChEMBL document CHEMBL1129630, “Synthesis and structure-activity relationships of retinoid X receptor selective diaryl sulfide analogs of retinoic acid” (J Med Chem, 1996).

pEC50: −log10 of the molar value. A value given as a limit tells only on which side of the number the result lay.

The subject of this assay is HL-60. The assay can be described thus: Induction of transglutaminase (TGase) activity in HL-60 cells. The settings on record: Homo sapiens.

The pEC50 is the EC50 on a negative log10 scale, so that one unit is a factor of ten. Low values mean a large EC50, high ones a small EC50.

Turning to `C/C(=C\c1ccc(C(=O)O)cc1)c1ccc2c(c1)C(C)(C)CCC2(C)C`, the negative-log EC50 (pEC50) is < 6.00.
